Data: the NIST ThermoML archive (doi:10.1016/j.tca.2004.11.022)

Tests used:
[1] = molar heat capacity at constant pressure; xn = mol fraction of the nth substance listed; conditions: 101 kPa, Liquid, Small sample (50 mg) DSC
[2] = xn = mol fraction of the nth substance listed; conditions: 101 kPa, Liquid; for mass density: Vibrating tube method; for speed of sound: Pulse-echo method

CCCCCCCCC [nonane] + COC(=O)OC
Conditions | mass density [kg/m3] | molar heat capacity at constant pressure [J/K/mol] | speed of sound [m/s]
[1], 288.15 K, x2 = 0.05262 | – | 273.59 | –
[1], 288.15 K, x2 = 0.1012 | – | 267.97 | –
[1], 288.15 K, x2 = 0.1514 | – | 262.27 | –
[1], 288.15 K, x2 = 0.2001 | – | 256.97 | –
[1], 288.15 K, x2 = 0.297 | – | 247.1 | –
[1], 288.15 K, x2 = 0.4018 | – | 237.24 | –
[1], 288.15 K, x2 = 0.452 | – | 232.75 | –
[1], 288.15 K, x2 = 0.5014 | – | 228.4 | –
[1], 288.15 K, x2 = 0.5514 | – | 223.85 | –
[1], 288.15 K, x2 = 0.6024 | – | 218.72 | –
[1], 288.15 K, x2 = 0.6477 | – | 213.45 | –
[1], 288.15 K, x2 = 0.6978 | – | 206.69 | –
[1], 288.15 K, x2 = 0.7944 | – | 191.68 | –
[1], 288.15 K, x2 = 0.845 | – | 183.74 | –
[1], 288.15 K, x2 = 0.9016 | – | 175.65 | –
[1], 288.15 K, x2 = 0.9486 | – | 169.8 | –
[1], 298.15 K, x2 = 0.05262 | – | 277.51 | –
[1], 298.15 K, x2 = 0.1012 | – | 271.68 | –
[1], 298.15 K, x2 = 0.1514 | – | 265.73 | –
[1], 298.15 K, x2 = 0.2001 | – | 260.11 | –
[1], 298.15 K, x2 = 0.297 | – | 249.53 | –
[1], 298.15 K, x2 = 0.4018 | – | 238.51 | –
[1], 298.15 K, x2 = 0.452 | – | 233.42 | –
[1], 298.15 K, x2 = 0.5014 | – | 228.22 | –
[1], 298.15 K, x2 = 0.5514 | – | 222.78 | –
[1], 298.15 K, x2 = 0.6024 | – | 217.1 | –
[1], 298.15 K, x2 = 0.6477 | – | 211.64 | –
[1], 298.15 K, x2 = 0.6978 | – | 205.13 | –
[1], 298.15 K, x2 = 0.7944 | – | 191.78 | –
[1], 298.15 K, x2 = 0.845 | – | 184.48 | –
[1], 298.15 K, x2 = 0.9016 | – | 176.75 | –
[1], 298.15 K, x2 = 0.9486 | – | 170.87 | –
[1], 308.15 K, x2 = 0.05262 | – | 281.91 | –
[1], 308.15 K, x2 = 0.1012 | – | 275.81 | –
[1], 308.15 K, x2 = 0.1514 | – | 269.66 | –
[1], 308.15 K, x2 = 0.2001 | – | 263.87 | –
[1], 308.15 K, x2 = 0.297 | – | 252.77 | –
[1], 308.15 K, x2 = 0.4018 | – | 241.06 | –
[1], 308.15 K, x2 = 0.452 | – | 235.55 | –
[1], 308.15 K, x2 = 0.5014 | – | 230.02 | –
[1], 308.15 K, x2 = 0.5514 | – | 224.27 | –
[1], 308.15 K, x2 = 0.6024 | – | 218.19 | –
[1], 308.15 K, x2 = 0.6477 | – | 212.66 | –
[1], 308.15 K, x2 = 0.6978 | – | 206.01 | –
[1], 308.15 K, x2 = 0.7944 | – | 192.97 | –
[1], 308.15 K, x2 = 0.845 | – | 185.93 | –
[1], 308.15 K, x2 = 0.9016 | – | 178.33 | –
[1], 308.15 K, x2 = 0.9486 | – | 172.4 | –
[2], 288.15 K, x2 = 0.05335 | 729.39 | – | –
[2], 288.15 K, x2 = 0.1009 | 736.94 | – | –
[2], 288.15 K, x2 = 0.1998 | 754.47 | – | –
[2], 288.15 K, x2 = 0.2963 | 774.22 | – | –
[2], 288.15 K, x2 = 0.3965 | 798.13 | – | –
[2], 288.15 K, x2 = 0.4978 | 826.3 | – | –
[2], 288.15 K, x2 = 0.5983 | 859.19 | – | –
[2], 288.15 K, x2 = 0.6976 | 897.72 | – | –
[2], 288.15 K, x2 = 0.7982 | 944.58 | – | –
[2], 288.15 K, x2 = 0.8985 | 1002.3 | – | –
[2], 293.15 K, x2 = 0.05335 | 725.45 | – | –
[2], 293.15 K, x2 = 0.1009 | 732.86 | – | –
[2], 293.15 K, x2 = 0.1998 | 750.26 | – | –
[2], 293.15 K, x2 = 0.2963 | 769.82 | – | –
[2], 293.15 K, x2 = 0.3965 | 793.41 | – | –
[2], 293.15 K, x2 = 0.4978 | 821.39 | – | –
[2], 293.15 K, x2 = 0.5983 | 853.92 | – | –
[2], 293.15 K, x2 = 0.6976 | 892.23 | – | –
[2], 293.15 K, x2 = 0.7982 | 938.72 | – | –
[2], 293.15 K, x2 = 0.8985 | 996.2 | – | –
[2], 298.15 K, x2 = 0.05335 | 721.48 | – | 1198.5
[2], 298.15 K, x2 = 0.1009 | 728.79 | – | 1191.8
[2], 298.15 K, x2 = 0.1998 | 746.03 | – | 1180
[2], 298.15 K, x2 = 0.2963 | 765.4 | – | 1170.5
[2], 298.15 K, x2 = 0.3965 | 788.73 | – | 1162.4
[2], 298.15 K, x2 = 0.4978 | 816.45 | – | 1156.8
[2], 298.15 K, x2 = 0.5983 | 848.67 | – | 1153.4
[2], 298.15 K, x2 = 0.6976 | 886.73 | – | 1153.5
[2], 298.15 K, x2 = 0.7982 | 932.9 | – | 1158.2
[2], 298.15 K, x2 = 0.8985 | 990.1 | – | 1171.2
[2], 308.15 K, x2 = 0.05335 | 713.45 | – | –
[2], 308.15 K, x2 = 0.1009 | 720.68 | – | –
[2], 308.15 K, x2 = 0.1998 | 737.48 | – | –
[2], 308.15 K, x2 = 0.2963 | 756.46 | – | –
[2], 308.15 K, x2 = 0.3965 | 779.36 | – | –
[2], 308.15 K, x2 = 0.4978 | 806.49 | – | –
[2], 308.15 K, x2 = 0.5983 | 838.24 | – | –
[2], 308.15 K, x2 = 0.6976 | 875.62 | – | –
[2], 308.15 K, x2 = 0.7982 | 921.26 | – | –
[2], 308.15 K, x2 = 0.8985 | 977.7 | – | –
